One data set relates to PC12 cells. In kind it is cell-based, rat.
Data set [1] in a line: physchem. Particulars: pH 7; for remaining at 240 h, 100 μg/ml / remaining at 480 h, 100 μg/ml / remaining at 720 h, 100 μg/ml: buffer. In kind it is physicochemical. The protocol: Adequate amounts of peptides 4, 12, 21, and 23 were fractionated via weighing and then dissolved in phosphate buffer (an aqueous solution of 0.001% sodium dihydrogen phosphate) adjusted at the pH level of 7.0 to bring the final concentration to 100 μg/ml. The resulting solutions were allowed to stand in a thermo-hygrostat (LH-20-11, Nagano Kagaku) at 40° C. and 75% RH for 0, 10, 20, and 30 days, and reverse phase HPLC analysis was carried out (wavelength: 220 nm; mobile phase: acetonitrile (29.5%)/trifluoroacetic acid (0.1%); column: ODS-120T (Tosoh); column temperature: 25° C.) to examine the quantities of remaining peptides 4, 12, 21, and 23.

The test system of a further data set is PC-12 cells. The experiment in a line: Effect of inducing neurite formation. The note with it: peptides 100 nM, cultured 3 days, compared to control without peptide and peptide 1. In kind it is cell-based, rat. As for the experimental part: Effect of peptides 1, 4, 12, 21, and 23 for inducing neurite formation were tested in the manner described below. PC-12 cells were cultured in Dulbecco's modified minimum essential medium (DMEM) containing 5% horse serum and 5% fetal calf serum in the presence of 5% CO2 and 95% air at 37° C. Cells were separated from the culture flask with the aid of trypsin, counted using a cytometer, and then the concentration was adjusted to 1.0×10^4 cells/ml. The cell-containing liquid medium was added to a Biocoat type IV collagen-coated 24-well dish in amounts of 1 ml each and then cultured in the presence of 5% CO2 and 95% air at 37° C. for 24 hours. The medium was replaced 24 hours later, and peptides (100 nM) were added at that time. The resultant was continuously cultured for 3 days and then photographed. […] The scale bar in each photograph represents 100 μm.

Data set [2] in a line: physchem. Type of data set: physicochemical. The note with it: for remaining at 168 h, 100 μg/ml: buffer. As for the experimental part: Adequate amounts of peptides 4, 12, 21, and 23 were fractionated via weighing and then dissolved in phosphate buffers (aqueous solution of 0.001% sodium dihydrogen phosphate) adjusted to pH levels of 6.0 and 7.0 to bring the final concentration to 100 μg/ml. The resulting solutions were allowed to stand in a thermo-hygrostat (LH-20-11, Nagano Kagaku) at 40° C. and 75% RH for a week, and reverse phase HPLC analysis was carried out (wavelength: 220 nm; mobile phase: acetonitrile (29.5%)/trifluoroacetic acid (0.1%); column: ODS-120T (Tosoh); column temperature: 25° C.) to examine the quantities of remaining peptides 4, 12, 21, and 23.

Data set [3] can be described thus: physchem. In kind it is physicochemical. Particulars: buffer or solvent. As for the experimental part:
Adequate amounts of peptides 4, 12, 21, and 23 were fractionated via weighing and then dissolved in distilled water (Otsuka Distilled Water) adjusted at pH levels of 6.0 and 7.0 to bring the final concentration to 10 μg/ml. The resulting solutions were allowed to stand in an incubator at 55° C. (FC-610, Advantec) for 3 days, and reverse phase HPLC analysis was carried out (wavelength: 220 nm; mobile phase: acetonitrile (29.5%)/trifluoroacetic acid (0.1%); column: ODS-120T (Tosoh); column temperature: 25° C.) to examine the quantities of remaining peptides 4, 12, 21, and 23. […] This was particularly apparent at pH 7.0.

The subject of another data set is bronchial smooth muscle. The experiment in a line: Relaxant effect on bronchial smooth muscle (carbachol-constricted trachea, Magnus tank). Particulars: carbachol (3×10^−7 M)-induced constriction; peptide 12 cumulative 10^−9 M to 3×10^−6 M, peptides 21 and 23 single 3×10^−6 M; isoproterenol 10^−6 M = 100% relaxation. More on the design: species or system Hartley male guinea pigs.

The nature of data set [4]: physchem. In kind it is physicochemical. Particulars: pH 7; for remaining at 240 h, 100 μg/ml / remaining at 480 h, 100 μg/ml / remaining at 720 h, 100 μg/ml: buffer or solvent. The protocol:
Adequate amounts of peptides 4, 12, 21, and 23 were fractionated via weighing and then dissolved in distilled water (Otsuka Distilled Water) adjusted at the pH level of 7.0 to bring the final concentration to 100 μg/ml. The resulting solutions were allowed to stand in an incubator at 55° C. (FC-610, Advantec) for 0, 10, 20, and 30 days, respectively, and reverse phase HPLC analysis was carried out (wavelength: 220 nm; mobile phase: acetonitrile (29.5%)/trifluoroacetic acid (0.1%); column: ODS-120T (Tosoh); column temperature: 25° C.) to examine the amount of remaining peptides 4, 12, 21, and 23.

Data set [5] in a line: Stability of peptide 4 in distilled water, 40° C., 24 hours (reverse phase HPLC). Type of data set: physicochemical. The protocol:
Peptide 4, a modified peptide, having a higher Arg content than wild-type VIP was weighed and fractionated to about 1 mg, the fractions were dissolved in distilled water adjusted to pH levels of 4.0, 5.0, 6.0, and 7.0 (Otsuka Distilled Water), and the final concentration was adjusted to 10 μg/ml. The resulting solutions were allowed to stand in an incubator at 40° C. (LH20-11M, Nagano Kagaku) for 24 hours, analysis was carried out via reverse phase HPLC (wavelength: 220 nm; mobile phase: 28% acetonitrile/0.1% trifluoroacetic acid; column: ODS-120T (Tosoh); column temperature: 25° C.), and the amount of remaining peptide 4 was examined.

In the next data set the test system is gastric constriction. As to the kind of experiment: Inhibitory effect on gastric peristaltic movement (carbachol-constricted isolated stomach, Magnus tank). Details: species or system ICR mice. Particulars: test peptides 10^−6 M, carbachol 3×10^−6 M, 15 minutes after drug administration, level of peptide 9 (control drug) = 100.
Data set [6] is described as follows: Helical content from circular dichroism spectra. In kind it is physicochemical. Particulars: 20 mM Tris-HCl buffer (pH 7.4), calculation by Greenfield et al. The protocol: VIP (peptide 1, SEQ ID NO: 2), peptide 7 (SEQ ID NO: 8) corresponding to 25 residues at the N-terminus of VIP, and peptide 8 (SEQ ID NO: 9), which is a peptide 7 derivative with its methionine-17 being oxidized, were dissolved in a 20 mM Tris-HCl buffer (pH 7.4), and the circular dichroism spectra thereof were examined using the Jasco J-720 (Jasco Corporation). According to analytical calculation of higher-order structure by Greenfield et al., the helical content of peptide 1 was about 50% (FIG. 2).

By amount remaining is commonly meant the share of the starting amount still present when the sample was taken.

Like-named read-outs stand apart in the source and are kept apart here. Ends that are not written are not given here.

Regarding “H-HSDAVFTANYTRLRRQLAVRRYLAAILGRR-NH2 [Peptide 23]”, the “neuroprotective effect, viable cell counts (in words)” value (“neuroprotective effect” for short) in the data set with PC12 cells was “significantly higher than that of peptide 1”. In “physchem [1]”, the fraction remaining at 240 h, 100 μg/ml turned out to be 98%; the share remaining at 480 h, 100 μg/ml was determined as 89%; the amount remaining at 720 h, 100 μg/ml turned out to be 73%. Further, the “neurite formation (in words)” value in the data set on PC-12 cells is “significantly induced neurite formation”. Further, in “physchem [2]” (pH 6), the share remaining at 168 h, 100 μg/ml worked out at 100% and the “stability (in words)” value is listed as “significantly improved compared to that of peptide 4”. The amount remaining at 72 h, 10 μg/ml in “physchem [3]” (pH 6) was found to be 100%. The “effect of relaxing the trachea (in words)” value in the data set on bronchial smooth muscle is recorded as “apparent peptide-addition-dependent effect of relaxing the trachea”. Moreover, in “physchem [4]”, the share remaining at 240 h, 100 μg/ml came to 62%; the amount remaining at 480 h, 100 μg/ml was determined as 42%; the fraction remaining at 720 h, 100 μg/ml turned out to be 30%; the “stability (in words)” value is “still remained 30 days later”.

On to “H-HSDAVFTDNYTRLRRQLAVRRYLAAILGRR-NH2 [Peptide 12]”, for which, in the data set on PC12 cells, the “neuroprotective effect” value is “significantly higher than that of peptide 1”. In “physchem [1]”, this substance showed a fraction remaining at 240 h, 100 μg/ml of 84%; a fraction remaining at 480 h, 100 μg/ml of 86%; a share remaining at 720 h, 100 μg/ml of 73%. The “neurite formation (in words)” value with PC-12 cells is “significantly induced neurite formation”. For the same substance, in “physchem [2]” (pH 6), the amount remaining at 168 h, 100 μg/ml is 100% and the “stability (in words)” value is “significantly improved compared to that of peptide 4”. Further, the amount remaining at 168 h, 100 μg/ml in the data set “physchem [2]” (pH 7) stood at 90%. The amount remaining at 72 h, 10 μg/ml in the data set “physchem [3]” (pH 6) was 94%. This substance showed an amount remaining at 72 h, 10 μg/ml in the data set “physchem [3]” (pH 7) of 100%. Further, the “effect of relaxing the trachea (in words)” value with bronchial smooth muscle is given as “apparent peptide-addition-dependent effect of relaxing the trachea”. In the data set “physchem [4]”, the fraction remaining at 240 h, 100 μg/ml is 49%; the fraction remaining at 480 h, 100 μg/ml was determined as 34%; the share remaining at 720 h, 100 μg/ml stood at 18%; the “stability (in words)” value is “still remained 30 days later”.

For the substance “H-HSDAVFTDNYTRLRRQLAVRRYLNSILNGRR-NH2 [Peptide 4, reference compound]”, the share remaining at 24 h in data set [5] (buffer or solvent, pH 5.0, distilled water, 10 μg/ml, 40° C., read-out: Amount of remaining peptide) is 90%. Besides, in [5] (distilled water pH 4.0 to 7.0, 40° C.), the “peptide degradation (in words)” value is given as “peptide degradation was significant at around the neutral pH region”. Besides, the fraction remaining at 24 h, 10 μg/ml in data set [5] (pH 4.0, distilled water, 10 μg/ml, 40° C., read-out: Amount of remaining peptide) was 91%; in data set [5] (pH 6.0, distilled water, 10 μg/ml, 40° C., read-out: Amount of remaining peptide) it was 93%; in [5] (pH 7.0, distilled water, 10 μg/ml, 40° C., read-out: Amount of remaining peptide), 84%. In addition, the “neuroprotective effect” value in the data set with PC12 cells is reported as “significantly higher than that of peptide 1”. The amount remaining at 240 h, 100 μg/ml in “physchem [1]” came to 28%; in the data set “physchem [4]” it was 0%. The fraction remaining at 480 h, 100 μg/ml came to 13% in “physchem [1]” and 0% in “physchem [4]”. The “stability (in words)” value in “physchem [1]” is “disappeared 30 days later”; in the data set “physchem [4]”, “completely disappeared after storage for 10 days”. Besides, the “neurite formation (in words)” value with PC-12 cells is “significantly induced neurite formation”. The figures for the amount remaining at 168 h, 100 μg/ml in the data set “physchem [2]” (pH 6) and in the data set “physchem [2]” (pH 7) were 53% and 35%, respectively. Moreover, the fraction remaining at 72 h, 10 μg/ml in the data set “physchem [3]” (pH 7) came out at 67%. The substance further returned an amount remaining at 720 h, 100 μg/ml in “physchem [4]” of 0%.

Turning to “H-HSDAVFTENYTRLRRQLAVRRYLAAILGRR-NH2 [Peptide 21]”, the “neuroprotective effect” value in the data set with PC12 cells was “significantly higher than that of peptide 1”. In “physchem [1]”, this substance returned a fraction remaining at 240 h, 100 μg/ml of 100%; an amount remaining at 480 h, 100 μg/ml of 76%; a fraction remaining at 720 h, 100 μg/ml of 59%. Also, the “neurite formation (in words)” value with PC-12 cells is “significantly induced neurite formation”. Moreover, in the data set “physchem [2]” (pH 6), the amount remaining at 168 h, 100 μg/ml was determined as 100% and the “stability (in words)” value is “significantly improved compared to that of peptide 4”. Besides, the share remaining at 168 h, 100 μg/ml in the data set “physchem [2]” (pH 7) was 87%. In “physchem [3]” (pH 6), this substance had an amount remaining at 72 h, 10 μg/ml of 93%. The same substance registered a fraction remaining at 72 h, 10 μg/ml in the data set “physchem [3]” (pH 7) of 100%. The “effect of relaxing the trachea (in words)” value with bronchial smooth muscle was “apparent peptide-addition-dependent effect of relaxing the trachea”. In “physchem [4]”, the amount remaining at 240 h, 100 μg/ml worked out at 29%; the fraction remaining at 480 h, 100 μg/ml came out at 45%; the share remaining at 720 h, 100 μg/ml is 10%; the “stability (in words)” value is recorded as “still remained 30 days later”.

Regarding “His-Ser-Asp-Ala-Val-Phe-Thr-Asp-Asn-Tyr-Thr-Arg-Leu-Arg-Arg-Gln-Leu-Ala-Val-Arg-Arg-Tyr-Leu-NH2 (HSDAVFTDNYTRLRRQLAVRRYL-NH2) [Peptide 10]”, the “Level of constriction inhibition” value with gastric constriction stood at 227.

Turning to “His-Ser-Asp-Ala-Val-Phe-Thr-Asp-Asn-Tyr-Thr-Arg-Leu-Arg-Lys-Gln-Leu-Ala-Val-Lys-Lys-Tyr-Leu-NH2 (HSDAVFTDNYTRLRKQLAVKKYL-NH2) [Peptide 9, reference compound]”, the “Level of constriction inhibition” value with gastric constriction is recorded as 100.

Turning to “His-Ser-Asp-Ala-Val-Phe-Thr-Asp-Asn-Tyr-Thr-Arg-Leu-Arg-Lys-Gln-Met-Ala-Val-Lys-Lys-Tyr-Leu-Asn-Ser-Ile-Leu-Asn-NH2 [Peptide 1, reference compound]”, the “neuroprotective effect” value with PC12 cells is “significant neuroprotective effects”. Further, the helical content result in data set [6] is recorded as “about 50%”.

Turning to “His-Ser-Asp-Ala-Val-Phe-Thr-Asp-Asn-Tyr-Thr-Arg-Leu-Arg-Lys-Gln-Met-Ala-Val-Lys-Lys-Tyr-Leu-Asn-Ser-NH2 (HSDAVFTDNYTRLRKQMAVKKYLNS-NH2) [Peptide 7, corresponding to 25 residues at the N-terminus of VIP]”, the helical content result in [6] is reported as “would retain a good deal of such higher-order structure”.

For “His-Ser-Asp-Gly-Ile-Phe-Thr-Asp-Ser-Tyr-Ser-Arg-Tyr-Arg-Arg-Gln-Leu-Ala-Val-Arg-Arg-Tyr-Leu-NH2 (HSDGIFTDSYSRYRRQLAVRRYL-NH2) [Peptide 33]”, the “Level of constriction inhibition” value in the data set on gastric constriction is 160.
